Measurements: PubChem BioAssay (NCI)
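All cell lines were grown in 96-well plates and treated with compound for 48 hours. GI50 marks 50% less growth. Definition used: TGI = concentration required for complete inhibition of growth.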

Experiments:
Test in all cases: DTP human tumour cell line panel, 48 h
MALME-3M melanoma = tested on: MALME-3M melanoma
SF-295 CNS = tested on: SF-295 CNS
DU-145 prostate = tested on: DU-145 prostate
MDA-MB-231 breast = tested on: MDA-MB-231 breast
TK-10 renal = tested on: TK-10 renal
CCRF-CEM leukemia = tested on: CCRF-CEM leukemia
HCT-15 colon = tested on: HCT-15 colon
SW-620 colon = tested on: SW-620 colon
UACC-62 melanoma = tested on: UACC-62 melanoma
NCI-H23 lung = tested on: NCI-H23 lung
HOP-92 NSCLC = tested on: HOP-92 NSCLC
SK-MEL-28 melanoma = tested on: SK-MEL-28 melanoma
OVCAR-5 ovarian = tested on: OVCAR-5 ovarian
NCI-H460 lung = tested on: NCI-H460 lung
T-47D breast = tested on: T-47D breast

Structure (SMILES) | TGI (MALME-3M melanoma) | TGI (SF-295 CNS) | TGI (DU-145 prostate) | TGI (MDA-MB-231 breast) | TGI (TK-10 renal) | TGI (CCRF-CEM leukemia) | TGI (HCT-15 colon) | TGI (SW-620 colon) | TGI (UACC-62 melanoma) | TGI (NCI-H23 lung) | TGI (HOP-92 NSCLC) | TGI (SK-MEL-28 melanoma) | TGI (OVCAR-5 ovarian) | TGI (NCI-H460 lung) | TGI (T-47D breast) | GI50 (MALME-3M melanoma) | GI50 (T-47D breast) | GI50 (TK-10 renal) | GI50 (HOP-92 NSCLC) | GI50 (SK-MEL-28 melanoma)
CC(=O)OCC(=O)OC[C@H](OCc1ccccc1)[C@@H]1[C@H](OC(C)=O)C(=O)N1Cc1ccccc1 | > 100 µM | > 100 µM | > 100 µM | > 100 µM | > 100 µM | > 100 µM | > 100 µM | > 100 µM | > 100 µM | > 100 µM | > 100 µM | > 100 µM | > 100 µM |  |  |  |  |  |  | 
CC(=O)NC(NCCN)(c1ccccc1)c1ccccc1 | > 100 µM | > 100 µM | > 100 µM | > 100 µM | > 100 µM | > 100 µM | > 100 µM | > 100 µM |  | > 100 µM | > 100 µM | > 100 µM | > 100 µM | > 100 µM |  |  |  |  |  | 
O=Cc1cc(C(=O)OCc2ccccc2)n(S(=O)(=O)c2ccccc2)c1 | > 100 µM | 29 µM | > 100 µM | 78.1 µM | 69.6 µM | > 100 µM | 50.7 µM |  | 31.6 µM | 60.9 µM |  | 30.2 µM | 37.6 µM | 70.2 µM | > 100 µM |  |  |  |  | 
CSc1nc2c(c(=O)n1C)N=C(c1ccc([N+](=O)[O-])cc1)CC(c1ccccc1)N2 (centres undefined) | > 100 µM | > 100 µM | > 100 µM | > 100 µM |  | > 100 µM |  | > 100 µM | > 100 µM | > 100 µM | > 100 µM | > 100 µM | > 100 µM | > 100 µM |  |  |  |  |  | 
CCOC(=O)c1nc2ccc(C(F)(F)F)cc2nc1NCc1ccc(OC)c(OC)c1 | > 100 µM | > 100 µM |  | > 100 µM | > 100 µM | > 100 µM | > 100 µM | > 100 µM | > 100 µM | > 100 µM | > 100 µM |  | > 100 µM | > 100 µM | > 100 µM |  |  |  |  | 
COc1cc2c(c(OC)c1OC)-c1ccc(SC)c(=O)cc1[C@@H](O)CC2 |  |  | > 100 µM |  | > 100 µM | > 100 µM |  | > 100 µM | > 100 µM |  | > 100 µM | > 100 µM |  | > 100 µM | > 100 µM | 0.028 µM | > 100 µM | > 100 µM | > 100 µM | > 100 µM
O=C(c1ccc(Cl)cc1)c1ccc(OCCCOc2ccc(C(=O)c3ccc(Cl)cc3)cc2Cl)c(Cl)c1 | > 100 µM | > 100 µM |  |  | > 100 µM | > 100 µM | > 100 µM | > 100 µM | > 100 µM | > 100 µM | > 100 µM | > 100 µM | > 100 µM | > 100 µM |  |  |  |  |  | 
Nc1ncnc2c1ncn2C1CCC(CP(=O)(O)O)C1 (centres undefined) | > 100 µM | > 100 µM | > 100 µM | > 100 µM | > 100 µM |  | > 100 µM | > 100 µM | > 100 µM | > 100 µM |  | > 100 µM | > 100 µM | > 100 µM | > 100 µM |  |  |  |  | 
S=c1ncc2c([nH]1)C1c3ccccc3C2c2ccccc21 | > 100 µM | > 100 µM |  |  | > 100 µM | > 100 µM | > 100 µM | > 100 µM | > 100 µM | > 100 µM |  | > 100 µM | > 100 µM | > 100 µM |  |  |  |  |  | 
CN(CCCNC(=O)c1cn(C)c2c1Cc1ccccc1-2)CCCNC(=O)c1cn(C)c2c1Cc1ccccc1-2 | 24.5 µM | 26.2 µM |  | 27.4 µM | 25.1 µM | 17.2 µM | 25.2 µM | 18.5 µM | 27.6 µM | 29.5 µM | 7.89 µM | 24 µM | 29.9 µM | 23.8 µM |  |  |  |  |  | 
COc1nc(N)c(NC(C)=O)c(=O)n1C | > 100 µM | > 100 µM |  |  | > 100 µM | > 100 µM | > 100 µM | > 100 µM |  | > 100 µM | > 100 µM | > 100 µM | > 100 µM | > 100 µM |  |  |  |  |  | 
CCOc1ccccc1N=Nc1c(-c2ccccc2)nn(C(=O)CC(=O)Nc2cccc(C)c2)c1-c1ccccc1 | > 100 µM | > 100 µM |  |  | > 100 µM | > 100 µM |  | > 100 µM | > 100 µM | > 100 µM | > 100 µM | > 100 µM | > 100 µM | > 100 µM |  |  |  |  |  | 
C/C=C1\CN2CCc3c([nH]c4ccccc34)C2CC1CCO (centres undefined) | > 100 µM | > 100 µM |  |  | > 100 µM | > 100 µM | > 100 µM | > 100 µM |  | > 100 µM | > 100 µM | > 100 µM | > 100 µM | > 100 µM |  |  |  |  |  | 
COc1cc(OC)cc(-c2cc(=O)c3cc4c(cc3[nH]2)OCO4)c1 | > 100 µM | 1.74 µM |  |  | 55 µM | 4.56 µM | 22.8 µM | > 100 µM | > 53.3 µM | 9.09 µM | 21.1 µM | > 71.7 µM | > 63.1 µM | 3.33 µM |  |  |  |  |  | 
CCOC(=O)CC(NC(=O)c1[nH]cnc1/N=N/N(C)C)C(=O)OCC (centres undefined) | > 100 µM | > 100 µM |  |  | > 100 µM | > 100 µM | > 100 µM | > 100 µM | > 100 µM | > 100 µM |  | > 100 µM | > 100 µM | > 100 µM |  |  |  |  |  | 
CC(=O)O[C@H]1C(=O)[C@@]2(C)[C@H]([C@H](OC(=O)c3ccccc3)[C@]3(O)C[C@H](OC(=O)[C@H](O)[C@@H](NC(=O)c4ccco4)c4ccccc4)C(C)=C1C3(C)C)[C@]1(OC(C)=O)CO[C@@H]1C[C@@H]2O |  | > 12.5 µM | > 12.5 µM | > 12.5 µM | > 12.5 µM | 0.0073 µM | > 12.5 µM | > 12.5 µM | > 12.5 µM | > 12.5 µM |  | > 12.5 µM | > 12.5 µM | > 12.5 µM | > 12.5 µM |  |  |  |  | 
CC1C2C=C(O)C(=O)C(C2=O)C1c1ccccc1 (centres undefined) | > 100 µM | > 100 µM |  |  | > 100 µM | > 100 µM | > 100 µM | > 100 µM | > 100 µM | > 100 µM | > 100 µM | > 100 µM | > 100 µM |  |  |  |  |  |  | 
CSCSCC(CO)NC(=O)/C(C)=C\c1c(C)[nH]c(=O)[nH]c1=O (centres undefined) | > 250 µM | > 250 µM |  |  |  | > 250 µM | > 250 µM | > 250 µM | > 250 µM | > 250 µM | 23.9 µM | > 250 µM | > 250 µM | > 250 µM |  |  |  |  |  | 
C=C(C(=O)OC)[C@@H]1C[C@@H](OC(C)=O)C2=C[C@H](C[C@@]3(C)O[C@@H]3C3=CC(C)=C(O3)[C@H]1OC(C)=O)OC2=O | 30.7 µM | 88.5 µM | > 100 µM | 44.1 µM | 31.7 µM |  | > 100 µM | 28.4 µM | 40.9 µM | 35.5 µM |  | 33.2 µM | 36.6 µM | 64.5 µM | 33.8 µM |  |  |  |  | 
CCCCCc1c(CCCC)c(=O)[nH]c2nc(NC(=O)CCCC)ccc12 | > 100 µM | > 100 µM |  | > 100 µM | > 100 µM | > 100 µM | > 100 µM | > 100 µM |  | > 100 µM | > 100 µM | > 100 µM | > 100 µM | > 100 µM | > 100 µM |  |  |  |  | 
CCOC(=O)c1c(NC(=S)Nc2ccc(Cl)cc2)sc2c1CCN(C)C2 |  | > 100 µM | > 100 µM | > 100 µM | > 100 µM | > 100 µM | > 100 µM |  | > 100 µM | > 100 µM |  |  | > 100 µM | > 100 µM | > 100 µM |  |  |  |  | 
COC1(OC)C2(Cl)C(Cl)=C(Cl)C1(Cl)C1C2C2CC1(C(=O)O)c1ccccc12 (centres undefined) | 32.1 µM | 56.8 µM |  |  | 70 µM | 27 µM | 62.3 µM | 54.3 µM | 34.8 µM | 28.4 µM | 93.4 µM | 38.9 µM |  | 47.8 µM |  |  |  |  |  | 
C=C1C(=O)O[C@H]2C1C[C@@H](OC(C)=O)/C(C)=C/CC[C@@]1(C)O[C@H]21 (some centres undefined) | 18.7 µM | 50.9 µM | 27.8 µM |  | 17.4 µM | 4.75 µM | 22.9 µM | 20.4 µM | 15.6 µM | 37.2 µM | 32.4 µM | 24.9 µM | 31.5 µM | > 100 µM | 21.5 µM |  |  |  |  | 
CC(C)CC(N)C(=O)Nc1ccc2ccccc2c1 (centres undefined) | > 100 µM | > 100 µM | > 100 µM | > 100 µM | > 100 µM | > 100 µM | > 100 µM | > 100 µM | > 100 µM | > 100 µM |  | > 100 µM | > 100 µM |  | > 100 µM |  |  |  |  | 
Cc1ccc(C)n2c1nc1ccccc12 | > 100 µM | > 100 µM | > 100 µM |  | > 100 µM | > 100 µM | > 100 µM | > 100 µM | > 100 µM | > 100 µM | > 100 µM | > 100 µM | > 100 µM | > 100 µM | > 100 µM |  |  |  |  | 
Cn1cc2ccccc2c1-c1nc(F)nc(Oc2ccc3c(c2)CC[C@@H]2C3CC[C@@]3(C)C2C[C@H](O)[C@@H]3O)n1 (some centres undefined) | 75.4 µM | 33.9 µM |  |  | 54.6 µM | 6.43 µM | 24.6 µM | 15.8 µM | 40.6 µM | 42.9 µM | 55.5 µM | 38.9 µM | 39.2 µM | 83 µM |  |  |  |  |  | 
